Drawing on ChEMBL document CHEMBL5321200, “Discovery of the GSH responsive "Y-PROTACs" targeting ALK and CDK4/6 as a potential treatment for cancer” (Eur J Med Chem, 2023), this text covers Activity, inhibition and Stability for 1 compound.

The source made the active and inactive calls. The rule behind the calls is not given here.

By inhibition is commonly meant the relative decrease from the control value, in per cent.

Data set [1] deals with Protein cereblon/Cyclin-dependent kinase 6 (Homo sapiens) (UniProt Q00534+Q96SW2). The data set is described as follows: PROTAC activity at CRBN/CDK6 in human NCI-H2228 cells assessed as reduction in CDK6 protein level by Western blot analysis. Format: cell-based. On the technique in general: Immunoblotting shows a protein as a band on a membrane.
For data set [2], the target named is Protein cereblon/Cyclin-dependent kinase 4 (Homo sapiens, UniProt P11802+Q96SW2). Kind of data set: PROTAC activity at CRBN/CDK4 in human NCI-H3122 cells assessed as degradation of CDK4 protein at 5 uM pretreated with palbociclib for 4 hrs followed by compound addition and measured after 24 hrs by Western blot analysis. The format is cell-based.
The target of data set [3] is Protein cereblon/ALK tyrosine kinase receptor/Echinoderm microtubule-associated protein-like 4 (Homo sapiens) (UniProt Q9UM73+Q9HC35+Q96SW2). The data set is described as follows: PROTAC activity at CRBN/EML4-ALK in human NCI-H3122 cells assessed as reduction in EML4-ALK fusion protein level at 10 uM incubated for 24 hrs by Western blot analysis. The format is cell-based.

Data set [4] is described as follows: Toxicity in BALB/c nude mouse xenografted with human NCI-H3122 cells assessed as effect on kidney function at 75 mg/kg, IG administered once daily for 18 days by H and E staining based assay. The format is organism-based. The conditions noted are these: in vivo, po, 432 h, time 18 day. A general note: In xenograft studies the graft and the host belong to different species.

Data set [5] has as its target Cyclin-dependent kinase 4 (Homo sapiens) (UniProt P11802). Kind of data set: Inhibition of CDK4 (unknown origin) at 0.05 uM by LANCE Ultra TR-FRET assay relative to control.
Data set [6] concerns NCI-H3122. Kind of data set: Induction of apoptosis in human NCI-H3122 cells assessed as late apoptotic cells at 0.625 uM incubated for 48 hrs by Annexin V-FITC/propidium iodide staining based flow cytometric analysis (reference value: 3.06%). Format: functional.
Data set [7] can be described thus: Stability of the compound in PBS buffer incubated upto 24 hrs in the presence of GSH by LC-MS/MS analysis. Format: physicochemical.
The subject of data set [8] is NCI-H3122. The data set is described as follows: Inhibition of colony formation in human NCI-H3122 cells assessed as reduction in number of colonies at 0.312 uM measured after 10 days by crystal violet staining based microscopic analysis relative to control. The following applies: NCI-H3122, 240 h, time 10 day. Format: functional.

Sequence of Protein cereblon/ALK tyrosine kinase receptor/Echinoderm microtubule-associated protein-like 4 (Homo sapiens) (Q96SW2 whole entry partner, the tested form may be a part): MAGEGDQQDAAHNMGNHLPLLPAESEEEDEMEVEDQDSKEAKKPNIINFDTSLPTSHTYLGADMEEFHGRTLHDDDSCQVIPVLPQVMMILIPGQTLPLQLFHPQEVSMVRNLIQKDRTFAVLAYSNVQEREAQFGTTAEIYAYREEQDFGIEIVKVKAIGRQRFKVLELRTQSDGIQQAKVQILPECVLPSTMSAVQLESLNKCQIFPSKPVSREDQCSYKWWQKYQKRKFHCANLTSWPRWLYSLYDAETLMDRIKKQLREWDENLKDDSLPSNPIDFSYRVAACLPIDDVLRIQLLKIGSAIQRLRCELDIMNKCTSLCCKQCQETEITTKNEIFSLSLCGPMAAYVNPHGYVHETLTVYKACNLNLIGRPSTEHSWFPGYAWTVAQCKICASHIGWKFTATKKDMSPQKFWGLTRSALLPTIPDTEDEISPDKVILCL
Sequence of Protein cereblon/ALK tyrosine kinase receptor/Echinoderm microtubule-associated protein-like 4 (Homo sapiens) (Q9HC35 whole entry partner, the tested form may be a part): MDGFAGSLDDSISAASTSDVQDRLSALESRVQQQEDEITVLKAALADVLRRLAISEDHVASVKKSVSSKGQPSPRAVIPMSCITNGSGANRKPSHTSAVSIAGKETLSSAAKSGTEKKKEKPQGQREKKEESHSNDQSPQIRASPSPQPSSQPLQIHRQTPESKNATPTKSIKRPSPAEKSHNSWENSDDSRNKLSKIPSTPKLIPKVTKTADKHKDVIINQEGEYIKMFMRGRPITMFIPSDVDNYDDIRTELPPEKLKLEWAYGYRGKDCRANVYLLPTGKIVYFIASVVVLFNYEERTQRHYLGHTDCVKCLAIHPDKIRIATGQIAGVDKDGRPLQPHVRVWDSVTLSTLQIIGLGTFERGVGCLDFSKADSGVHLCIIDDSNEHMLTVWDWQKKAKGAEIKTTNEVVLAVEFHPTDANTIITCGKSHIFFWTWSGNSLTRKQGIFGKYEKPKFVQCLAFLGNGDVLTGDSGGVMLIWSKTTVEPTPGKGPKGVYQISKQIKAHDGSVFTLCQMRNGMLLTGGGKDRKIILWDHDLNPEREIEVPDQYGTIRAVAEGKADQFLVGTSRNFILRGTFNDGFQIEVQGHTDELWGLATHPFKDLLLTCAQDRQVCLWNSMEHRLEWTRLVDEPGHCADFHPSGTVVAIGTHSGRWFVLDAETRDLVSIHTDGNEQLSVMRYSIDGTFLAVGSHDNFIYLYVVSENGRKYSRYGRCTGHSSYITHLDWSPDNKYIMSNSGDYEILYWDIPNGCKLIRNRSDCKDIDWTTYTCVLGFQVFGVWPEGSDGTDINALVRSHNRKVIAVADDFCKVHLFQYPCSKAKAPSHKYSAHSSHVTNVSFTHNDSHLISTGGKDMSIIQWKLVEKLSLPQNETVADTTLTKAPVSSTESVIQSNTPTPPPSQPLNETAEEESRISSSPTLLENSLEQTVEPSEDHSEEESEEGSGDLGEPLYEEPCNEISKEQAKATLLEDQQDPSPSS
Sequence of Protein cereblon/ALK tyrosine kinase receptor/Echinoderm microtubule-associated protein-like 4 (Homo sapiens) (Q9UM73 19-1620 limits assumed): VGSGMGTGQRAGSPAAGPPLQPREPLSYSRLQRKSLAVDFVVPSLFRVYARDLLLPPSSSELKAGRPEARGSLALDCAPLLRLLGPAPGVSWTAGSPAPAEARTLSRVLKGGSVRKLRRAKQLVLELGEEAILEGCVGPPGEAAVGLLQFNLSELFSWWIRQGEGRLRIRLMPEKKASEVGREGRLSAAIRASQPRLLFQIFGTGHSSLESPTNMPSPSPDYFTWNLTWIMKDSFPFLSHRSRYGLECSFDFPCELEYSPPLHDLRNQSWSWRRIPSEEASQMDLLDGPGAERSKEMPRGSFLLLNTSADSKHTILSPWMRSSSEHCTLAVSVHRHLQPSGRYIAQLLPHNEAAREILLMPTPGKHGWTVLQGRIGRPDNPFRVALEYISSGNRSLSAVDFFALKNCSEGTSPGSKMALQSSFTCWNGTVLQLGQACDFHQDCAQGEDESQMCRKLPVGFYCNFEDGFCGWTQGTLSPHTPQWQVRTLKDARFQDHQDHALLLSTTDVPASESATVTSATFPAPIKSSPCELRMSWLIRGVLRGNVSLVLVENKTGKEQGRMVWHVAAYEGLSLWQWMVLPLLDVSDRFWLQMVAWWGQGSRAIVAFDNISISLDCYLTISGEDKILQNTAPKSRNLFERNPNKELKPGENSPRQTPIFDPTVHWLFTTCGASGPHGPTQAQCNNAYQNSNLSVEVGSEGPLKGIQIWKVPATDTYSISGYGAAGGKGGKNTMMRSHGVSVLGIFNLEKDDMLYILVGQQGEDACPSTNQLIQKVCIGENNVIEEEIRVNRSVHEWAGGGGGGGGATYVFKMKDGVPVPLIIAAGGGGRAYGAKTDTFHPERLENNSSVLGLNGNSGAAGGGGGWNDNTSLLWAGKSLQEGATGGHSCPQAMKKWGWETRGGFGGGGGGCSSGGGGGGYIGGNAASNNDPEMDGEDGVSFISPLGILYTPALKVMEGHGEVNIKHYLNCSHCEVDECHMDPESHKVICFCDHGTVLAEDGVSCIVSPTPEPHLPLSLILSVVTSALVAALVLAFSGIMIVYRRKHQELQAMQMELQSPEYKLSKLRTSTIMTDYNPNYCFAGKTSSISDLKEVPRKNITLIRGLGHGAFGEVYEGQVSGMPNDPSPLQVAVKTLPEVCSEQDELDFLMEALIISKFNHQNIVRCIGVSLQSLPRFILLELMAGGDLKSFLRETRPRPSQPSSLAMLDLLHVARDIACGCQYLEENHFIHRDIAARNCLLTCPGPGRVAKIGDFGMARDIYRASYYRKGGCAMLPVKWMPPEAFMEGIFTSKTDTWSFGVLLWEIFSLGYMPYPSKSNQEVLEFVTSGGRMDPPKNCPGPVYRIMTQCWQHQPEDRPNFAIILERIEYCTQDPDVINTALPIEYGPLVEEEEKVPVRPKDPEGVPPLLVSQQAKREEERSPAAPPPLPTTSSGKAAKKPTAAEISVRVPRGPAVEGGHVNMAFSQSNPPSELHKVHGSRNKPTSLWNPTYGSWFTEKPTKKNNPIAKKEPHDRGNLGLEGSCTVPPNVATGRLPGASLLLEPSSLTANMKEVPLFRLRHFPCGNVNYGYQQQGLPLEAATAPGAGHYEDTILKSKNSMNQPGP
Sequence of Protein cereblon/Cyclin-dependent kinase 4 (P11802 2-303 limits assumed): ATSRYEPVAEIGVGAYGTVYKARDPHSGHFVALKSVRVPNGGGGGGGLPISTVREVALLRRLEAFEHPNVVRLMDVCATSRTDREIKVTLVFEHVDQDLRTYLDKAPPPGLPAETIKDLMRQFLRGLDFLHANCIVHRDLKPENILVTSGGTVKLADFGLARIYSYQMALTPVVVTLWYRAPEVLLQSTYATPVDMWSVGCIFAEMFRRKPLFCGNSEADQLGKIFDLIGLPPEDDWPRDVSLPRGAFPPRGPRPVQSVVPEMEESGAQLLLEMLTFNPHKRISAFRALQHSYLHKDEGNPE
Sequence of Protein cereblon/Cyclin-dependent kinase 4 (Q96SW2 whole entry partner, the tested form may be a part): as the sequence (Q96SW2 whole entry partner, the tested form may be a part) above
Sequence of Cyclin-dependent kinase 4 (Homo sapiens) (P11802 whole entry): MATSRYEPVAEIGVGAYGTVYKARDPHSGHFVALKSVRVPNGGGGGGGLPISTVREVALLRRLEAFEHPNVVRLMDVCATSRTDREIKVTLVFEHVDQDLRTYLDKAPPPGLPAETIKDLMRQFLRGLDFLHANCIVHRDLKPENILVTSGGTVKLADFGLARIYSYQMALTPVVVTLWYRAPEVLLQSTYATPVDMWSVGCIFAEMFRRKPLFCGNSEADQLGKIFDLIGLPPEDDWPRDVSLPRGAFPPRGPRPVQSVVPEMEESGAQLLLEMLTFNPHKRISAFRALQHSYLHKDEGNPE
Sequence of Protein cereblon/Cyclin-dependent kinase 6 (Homo sapiens) (Q00534 whole entry, looked up): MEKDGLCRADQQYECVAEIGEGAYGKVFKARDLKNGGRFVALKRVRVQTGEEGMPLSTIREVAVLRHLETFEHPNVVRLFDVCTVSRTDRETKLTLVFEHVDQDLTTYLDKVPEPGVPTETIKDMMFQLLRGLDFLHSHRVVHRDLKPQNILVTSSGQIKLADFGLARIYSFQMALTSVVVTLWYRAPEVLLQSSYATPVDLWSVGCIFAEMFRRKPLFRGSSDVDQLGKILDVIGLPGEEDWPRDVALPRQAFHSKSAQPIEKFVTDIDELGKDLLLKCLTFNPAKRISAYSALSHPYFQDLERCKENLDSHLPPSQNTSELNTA
Sequence of Protein cereblon/Cyclin-dependent kinase 6 (Homo sapiens) (Q96SW2 whole entry, looked up): as the sequence (Q96SW2 whole entry partner, the tested form may be a part) above

As to `CC(=O)c1c(C)c2cnc(Nc3ccc(N4CCN(CC(=O)NCCSSCCN(CC(=O)NCCNc5cccc6c5C(=O)N(C5CCC(=O)NC5=O)C6=O)C(=O)CCCCCCC(=O)N5CCC(c6cc(OC(C)C)c(Nc7ncc(Cl)c(Nc8ccccc8S(=O)(=O)C(C)C)n7)cc6C)CC5)CC4)cn3)nc2n(C2CCCC2)c1=O` (stereo not drawn), the outcome in data set [1] and in data set [2] was inactive. Besides, the outcome in data set [3] was Active. For the same compound, the Activity result in data set [4] is given as “Non-Toxic”; with NCI-H3122 [6], 8.32%. In data set [5], this compound gave an inhibition of 54.9%. Moreover, the Stability result in data set [7] was “Stable”. Moreover, the inhibition at 0.312 µM with NCI-H3122 [8] was 100%.
